Data as given in patent publication US20240269139A1, “COMPOUNDS FOR TARGETED PROTEIN DEGRADATION OF KINASES” (DANA-FARBER CANCER INSTITUTE, INC., priority 2020, published 2024).
Read-outs that look alike come from different tables or passages of the source.

Tests used:
Format in all cases: cell-based
[1] = target: T1, protein kinases (human kinome) (Homo sapiens, UniProt P42680); conditions: TEC (P42680)
T1 sequence (P42680 1-631): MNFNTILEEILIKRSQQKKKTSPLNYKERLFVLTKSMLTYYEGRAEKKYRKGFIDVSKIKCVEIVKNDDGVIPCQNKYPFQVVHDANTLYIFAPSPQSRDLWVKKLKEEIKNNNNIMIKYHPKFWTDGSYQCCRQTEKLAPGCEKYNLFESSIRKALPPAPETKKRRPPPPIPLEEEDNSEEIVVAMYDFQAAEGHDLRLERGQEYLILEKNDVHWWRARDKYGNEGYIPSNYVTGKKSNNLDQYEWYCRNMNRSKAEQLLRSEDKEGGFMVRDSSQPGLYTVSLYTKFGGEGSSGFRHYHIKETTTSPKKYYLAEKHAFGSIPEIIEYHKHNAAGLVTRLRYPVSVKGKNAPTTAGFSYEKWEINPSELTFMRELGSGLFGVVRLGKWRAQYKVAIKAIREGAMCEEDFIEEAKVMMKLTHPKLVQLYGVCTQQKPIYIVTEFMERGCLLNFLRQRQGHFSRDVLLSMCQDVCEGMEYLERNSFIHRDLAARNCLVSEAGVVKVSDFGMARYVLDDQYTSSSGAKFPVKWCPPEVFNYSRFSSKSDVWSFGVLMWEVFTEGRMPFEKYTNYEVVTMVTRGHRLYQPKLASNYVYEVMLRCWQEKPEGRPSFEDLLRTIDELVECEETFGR

[2] = target: protein kinases (human kinome) (Homo sapiens, UniProt O96013); conditions: PAK4 O96013-1
[3] = target: T2, protein kinases (human kinome) (Homo sapiens, UniProt O60285); conditions: NUAK1 (O60285)
T2 sequence (O60285 1-661): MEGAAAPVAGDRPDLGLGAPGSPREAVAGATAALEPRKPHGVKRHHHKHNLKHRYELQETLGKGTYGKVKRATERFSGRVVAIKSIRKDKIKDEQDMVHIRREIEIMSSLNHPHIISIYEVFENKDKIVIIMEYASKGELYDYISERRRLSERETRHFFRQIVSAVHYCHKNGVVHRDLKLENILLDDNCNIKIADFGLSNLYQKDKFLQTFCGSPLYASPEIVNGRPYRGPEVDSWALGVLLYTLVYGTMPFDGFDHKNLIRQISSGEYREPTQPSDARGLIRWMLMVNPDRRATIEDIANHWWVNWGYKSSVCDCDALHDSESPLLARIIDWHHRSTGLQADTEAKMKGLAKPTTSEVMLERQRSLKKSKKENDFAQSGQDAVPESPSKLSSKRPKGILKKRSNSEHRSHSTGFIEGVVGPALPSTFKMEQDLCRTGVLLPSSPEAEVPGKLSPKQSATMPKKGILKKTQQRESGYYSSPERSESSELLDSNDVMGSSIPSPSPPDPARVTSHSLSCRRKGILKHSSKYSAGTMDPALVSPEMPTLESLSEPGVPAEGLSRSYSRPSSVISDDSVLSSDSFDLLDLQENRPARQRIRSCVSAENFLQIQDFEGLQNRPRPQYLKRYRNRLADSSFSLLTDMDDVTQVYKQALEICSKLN

[4] = experiment wp137, direction down
[5] = experiment wp076, direction down
[6] = experiment wp146, direction down
[7] = experiment wp107, direction down

Sequence of protein kinases (human kinome) (Homo sapiens, UniProt O96013) (O96013 whole entry): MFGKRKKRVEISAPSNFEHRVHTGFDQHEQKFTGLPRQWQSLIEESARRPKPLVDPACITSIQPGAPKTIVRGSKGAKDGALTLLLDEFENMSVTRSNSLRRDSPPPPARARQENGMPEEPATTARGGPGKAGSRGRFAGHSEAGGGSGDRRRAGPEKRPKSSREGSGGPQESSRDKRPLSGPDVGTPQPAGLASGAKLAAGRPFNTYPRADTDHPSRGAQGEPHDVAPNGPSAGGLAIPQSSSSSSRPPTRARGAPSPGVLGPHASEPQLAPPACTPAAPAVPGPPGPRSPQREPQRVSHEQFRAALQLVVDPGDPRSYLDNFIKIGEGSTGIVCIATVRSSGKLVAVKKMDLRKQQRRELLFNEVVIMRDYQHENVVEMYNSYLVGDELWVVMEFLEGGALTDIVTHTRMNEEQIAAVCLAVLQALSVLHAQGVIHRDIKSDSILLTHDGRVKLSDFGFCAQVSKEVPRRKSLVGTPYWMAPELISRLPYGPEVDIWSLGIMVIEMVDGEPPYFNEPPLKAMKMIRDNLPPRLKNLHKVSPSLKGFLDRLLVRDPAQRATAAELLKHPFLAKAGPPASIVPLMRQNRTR

Structure (SMILES): CC(C)S(=O)(=O)c1ccccc1Nc1nc(Nc2ccc(N3CCN(CCOCCOCCC(=O)NCCNc4cccc5c4CN(C4CCC(=O)NC4=O)C5=O)CC3)cc2)ncc1Cl (centres unmarked) [TL13.97]
- logFC ([1]; experiment wp137): −1.712
- logFC [1, 4]: −1.712

Structure (SMILES): C=CCn1c(=O)c2cnc(Nc3ccc(N4CCN(CCCNc5cccc6c5C(=O)N(C5CCC(=O)NC5=O)C6=O)CC4)cc3)nc2n1-c1cccc(C(C)(C)O)n1 (centres unmarked) [ZNL.02.096]
- logFC ([2]; experiment wp056): −0.634
- logFC PAK4 ([2]; experiment wp056): −0.634
- logFC ([2]; experiment wp081): −0.3989
- logFC PAK4 ([2]; experiment wp081): −0.3989
- logFC ([2]; experiment wp106, 2 hr): −0.4238
- logFC PAK4 ([2]; experiment wp106, 2 hr): −0.4238
- logFC ([2]; experiment wp106, 4 hr): −0.5768
- logFC PAK4 ([2]; experiment wp106, 4 hr): −0.5768
- logFC ([2]; experiment wp118): −0.5732
- logFC PAK4 ([2]; experiment wp118): −0.5732

Structure (SMILES): Nc1ncc(-c2ccc(S(=O)(=O)N(CCCNC(=O)CCOCCOCCOCCOCCOCCNc3cccc4c3C(=O)N(C3CCC(=O)NC3=O)C4=O)C3CC3)cc2)cc1-c1ccc2c(c1)CCNC2=O (centres unmarked) [WH.10417.099]
- logFC ([2]; experiment wp103): −0.3705
- logFC PAK4 ([2]; experiment wp103): −0.3705
- logFC ([2]; experiment wp105): −0.3478
- logFC PAK4 ([2]; experiment wp105): −0.3478
- logFC ([2]; experiment wp107): −0.4797
- logFC PAK4 ([2]; experiment wp107): −0.4797

Structure (SMILES): O=C1CCC(N2C(=O)c3cccc(NCCCCCCCCN4CCC(NC(=O)c5[nH]ncc5NC(=O)c5c(Cl)cccc5Cl)CC4)c3C2=O)C(=O)N1 (centres unmarked) [MFH.5.126.1]
- logFC ([3]; experiment wp076): −1.649
- logFC [3, 5]: −1.649

Structure (SMILES): Cc1cc(Nc2ncc(Br)c(Nc3cccc(F)c3C(N)=O)n2)ccc1S(=O)(=O)NCCOCCOCCOCCOCCNc1cccc2c1C(=O)N(C1CCC(=O)NC1=O)C2=O (centres unmarked) [TMX.02.174]
- logFC ([3]; experiment wp146): −1.361
- logFC [3, 6]: −1.361
- logFC ([1]; experiment wp146): −0.9362
- logFC [1, 6]: −0.9362

Structure (SMILES): Cc1ccc(NC(=O)c2cccc(C(F)(F)F)c2)cc1N1Cc2cnc(Nc3ccc(N4CCN(CCCOc5cccc6c5C(=O)N(C5CCC(=O)NC5=O)C6=O)CC4)nc3)nc2N(C)C1=O (centres unmarked) [DB0662]
- logFC ([2]; experiment wp168): −1.34
- logFC PAK4 ([2]; experiment wp168): −1.34

Structure (SMILES): CC(C)S(=O)(=O)c1ccccc1Nc1nc(Nc2ccc(N3CCN(CCOCCOCCNC(=O)CNc4cccc5c4C(=O)N(C4CCC(=O)NC4=O)C5=O)CC3)cc2)ncc1Cl (centres unmarked) [TL12.186]
- logFC ([1]; experiment wp137): −2.11
- logFC [1, 4]: −2.11

Structure (SMILES): NC(=O)c1c(F)cccc1Nc1nc(Nc2ccc(S(=O)(=O)NCCOCCOCCOCCOCCNc3cccc4c3C(=O)N(C3CCC(=O)NC3=O)C4=O)cc2)ncc1Br (centres unmarked) [TMX.02.138]
- logFC ([3]; experiment wp146): −0.8254
- logFC [3, 6]: −0.8254

Structure (SMILES): Cc1ccc(NC(=O)c2cccc(C(F)(F)F)c2)cc1N1Cc2cnc(Nc3ccc(N4CCN(Cc5cn(CCCCCOc6cccc7c6C(=O)N(C6CCC(=O)NC6=O)C7=O)nn5)CC4)nc3)nc2N(C)C1=O (centres unmarked) [DB0646, N-(3-(7-((6-(4-((1-(5-((2-(2,6-Dioxopiperidin-3-yl)-1,3-dioxoisoindolin-4-yl)oxy)pentyl)-1H-1,2,3-triazol-4-yl)methyl)piperazin-1-v)pyridin-3-yl)amino)-1-methyl-2-oxo-1,4-dihydropyrimido[4,5-d]pyrimidin-3(2H)-yl)-4-methylphenyl)-3-(trifluoromethyl)benzamide]
- logFC ([1]; experiment wp107): −0.8282
- logFC [1, 7]: −0.8282

Structure (SMILES): CC(C)S(=O)(=O)c1ccccc1Nc1nc(Nc2ccc(N3CCN(CCOCCNC(=O)CNc4cccc5c4C(=O)N(C4CCC(=O)NC4=O)C5=O)CC3)cc2)ncc1Cl (centres unmarked) [SK.3.91]
- logFC ([1]; experiment wp103): −0.6497
- logFC ([1]; experiment wp103, direction down): −0.6497
- logFC ([1]; experiment wp107): −1.146
- logFC [1, 7]: −1.146

Structure (SMILES): CCc1cnn2c(N(Cc3ccc(N)nc3)C(=O)CCOCCOCCOCCNC(=O)CNc3cccc4c3C(=O)N(C3CCC(=O)NC3=O)C4=O)cc(N3CCCC[C@H]3CCO)nc12 (some centres unmarked) [MFH.5.115.2]
- logFC ([3]; experiment wp076): −0.5264
- logFC [3, 5]: −0.5264
